This is an account of results in patent publication US20220047589A1, “PDE9 INHIBITORS FOR TREATING THALASSEMIA” (Imara Inc., priority 2019, published 2022).

The structures appear in SMILES notation. Entries after “also recorded” stand apart in the source; their conditions may differ.

The subject of data set [1] is Hbb^th1 mice. Description: In vivo study in Hbb^th1 thalassemia mice: blood Hb and RBC levels. Details: species or system mouse. How it is done:
(§1) This model was used to evaluate the effect of Compound 1 to treat thalassemia.
(§2) Hbb^th1 mice were given Compound 1 dissolved in 10:90 DMSO:corn oil once daily, by oral gavage, at either a high dose (60 mg/kg) or a low dose (30 mg/kg). A normal (C57BL/6) mouse was included as a control in the study to establish baselines along with a Hbb^th1 vehicle mouse not given Compound 1. Animals were observed once daily for morbidity and mortality. Mice were not allowed to recover from anesthesia and were killed by cervical dislocation while still anesthetized. Necropsy was limited to removal and weighing of the spleen for further analysis.
Blood was collected on day 30, from the retroorbital sinus of all mice, while mice were under isoflurane anesthesia, using heparin capillaries and EDTA-coated tubes. Parameters measured were: Hb levels and RBC levels.

Data set [2] can be described thus: Effect of food on adverse event profile on once-daily administration to patients. Type of data set: in vivo. The following applies: once a day with food. As to the method: In some embodiments, Compound 1, or a pharmaceutically acceptable salt, solvate, or polymorph thereof is administered to a patient, wherein Compound 1, or a pharmaceutically acceptable salt, solvate, or polymorph thereof is administered once a day with food. […] The incidence and severity of the side effects, such as nausea, emesis and headache, can be reduced when Compound 1, or a pharmaceutically acceptable salt, solvate, or polymorph thereof is taken with food.

For data set [3], the system named is Hbb^th1 mice. The experiment in a line: Erythroblast differentiation (RBC maturation) in spleen cells of treated Hbb^th1 mice by flow cytometry. Type of data set: in vivo, mouse. The following applies: 30 or 60 mg/kg once daily by oral gavage. As to the method: as §1, §2
RBC maturation is a key mechanistic component in reducing pathology of thalassemia. Therefore, immature RBC (Ery.B: late basophilic and polychromatic) percentage, mature RBC (Ery.C: ortochromatic and reticulocytes) percentage, and maturation index were also measured. […] Cells were further analyzed by flow cytometry (Gallios, Beckman) using FlowJo software v.10.1 (FlowJo, LLC). Results were expressed as the percentage of Ery.B (Live-Dead^neg, Ter-119^pos, CD71^pos, FSC^low) or Ery.C (Live-Dead^neg, Ter-119^pos, CD71^neg, FSC^low) populations. Maturation index was calculated as Ery.B/Ery.C ratio.
In general terms: In flow cytometry, cells or beads pass a laser one at a time.

Consider `C[C@@H]1CN(Cc2ncccn2)C[C@H]1c1cn2c(C3CCOCC3)ncc2c(=O)[nH]1` [Compound 1, 6-[(3S,4S)-4-methyl-1-(pyrimidin-2-ylmethyl)pyrrolidin-3-yl]-3-tetrahydropyran-4-yl-7H-imidazo[1,5-a]pyrazin-8-one], for which the “Hb levels (total Hb amount)” value in data set [1] (30 or 60 mg/kg once daily by oral gavage, blood on day 30, FIG. 1A) was “increase Hb levels; also recorded: increases the total Hb amount”. In data set [1] (30 or 60 mg/kg once daily by oral gavage, blood on day 30, FIG. 1B), the “RBC levels (RBC amount)” value was “increased RBC levels; also recorded: increases”. For the same compound, in data set [1] (high dose (60 mg/kg), once daily by oral gavage, blood collected on day 30), the “increase of total Hb vs. control groups” value worked out at 1.3 g/dL. In addition, in data set [2], the “adverse event profile (nausea, emesis, headache) when taken with food” value is listed as “food reduce the adverse event profile dramatically”. Also, the “immature RBC (Ery.B) percentage” value in data set [3] (FIG. 2A) is reported as “reduces immature RBC cell percentages; also recorded: reduces immature RBC levels”. Besides, in data set [3] (FIG. 2B), the “mature RBC (Ery.C) percentage” value was “increases mature RBC cell percentages; also recorded: increases mature RBC levels”.
